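1) Cells in 96-well plates. 2) Compound, 48 h, 5 concentrations. 3) Linear interpolation between surrounding doses. 4) Unreached endpoint = highest concentration. GI50 marks 50% less growth.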 The source made the active and inactive calls. Rule as the data show it: active = GI50 up to about 1.1 µM and inactive = higher.

Test systems include SNB-19; Malme-3M; SF-539; TK-10; 786-0; OVCAR-3; RXF 393; NCI-H522; SK-OV-3; OVCAR-4; A549; RPMI-8226; K562; SNB-75; HCC 2998; SK-MEL-2; T47D; MCF7; MDA-MB-231.
Common to all, as to experiment: inhibition of tumour cell growth, NCI panel, 48 h

As to `CC(C)=Cc1cc(C(=O)NCCNC(=O)c2cc(C=C(C)C)nc(NC#N)n2)nc(NC#N)n1`, the GI50 in the assay with SNB-19, with Malme-3M, with SF-539, with TK-10, in the assay on 786-0 and in the assay on OVCAR-3 was > 100 µM (inactive) in each case. Moreover, the GI50 with RXF 393, in the assay on NCI-H522, in the assay with SK-OV-3, in the assay with OVCAR-4, in the assay on A549 and with RPMI-8226 was > 100 µM (inactive) throughout. Also, the GI50 with K562, in the assay with SNB-75 and with HCC 2998 was > 100 µM (inactive) in each case.

`CSc1nc2nc(C(O)C(O)C(O)CO)cnc2c(=O)[nH]1` (stereo not given): the GI50 in the assay with SNB-19 is > 100 µM (inactive); in the assay on Malme-3M, > 100 µM (inactive); in the assay with SF-539, > 100 µM (inactive); in the assay with TK-10 it was > 100 µM (inactive); in the assay on 786-0, > 100 µM (inactive); with OVCAR-3, 34 µM (inactive). Besides, the GI50 in the assay with RXF 393 was > 100 µM (inactive); in the assay on NCI-H522, > 100 µM (inactive); with SK-OV-3, > 100 µM (inactive); in the assay on A549 it was > 100 µM (inactive); in the assay on RPMI-8226, > 100 µM (inactive); with K562, > 10 µM (inactive). The GI50 with SK-MEL-2, with SNB-75 and in the assay on HCC 2998 was > 100 µM (inactive) each time.

For the compound `CC(O[Si](C)(C)C(C)(C)C)[C@H](NC(=O)OCC(Cl)(Cl)Cl)C(=O)O` (stereo not given in full), the GI50 was > 100 µM (inactive) in the assay with SNB-19; > 100 µM (inactive) with Malme-3M; > 100 µM (inactive) in the assay on SF-539; > 100 µM (inactive) in the assay with TK-10; > 100 µM (inactive) in the assay with 786-0; 79.6 µM (inactive) in the assay on OVCAR-3. Moreover, the GI50 in the assay with RXF 393 is > 100 µM (inactive); in the assay on NCI-H522, 78 µM (inactive); in the assay with SK-OV-3, > 100 µM (inactive); in the assay on T47D, > 100 µM (inactive); in the assay with OVCAR-4, > 100 µM (inactive); in the assay with A549, > 100 µM (inactive). Further, the GI50 in the assay on RPMI-8226 is 84.7 µM (inactive); in the assay on K562 it was > 100 µM (inactive); in the assay with MCF7 it was > 100 µM (inactive); in the assay on HCC 2998 it was > 100 µM (inactive); in the assay on MDA-MB-231, > 100 µM (inactive).

For `Clc1nc(Cl)c(Cl)c(-c2ccccc2)n1`, the GI50 in the assay with SNB-19 is 15.6 µM (inactive); in the assay with Malme-3M, 5.61 µM (inactive); in the assay with SF-539, 11.8 µM (inactive); in the assay with TK-10 it was 18.8 µM (inactive); in the assay with 786-0 it was 2.21 µM (inactive); with OVCAR-3, 2.05 µM (inactive). The GI50 is 13.6 µM (inactive) in the assay with RXF 393; 1.67 µM (inactive) in the assay with NCI-H522; 13.1 µM (inactive) in the assay with SK-OV-3; 4.85 µM (inactive) in the assay on OVCAR-4; 13.8 µM (inactive) with A549; 5.24 µM (inactive) with RPMI-8226. For the same compound, the GI50 with K562 was 1.44 µM (inactive); with MCF7, 7.05 µM (inactive); with SK-MEL-2, 15.4 µM (inactive); in the assay with SNB-75, 2.26 µM (inactive); in the assay with HCC 2998, 22.2 µM (inactive).

In the case of `Cc1ccc2nc(-c3ccc(N)c(I)c3)sc2c1`, the GI50 in the assay with SNB-19 was 19 µM (inactive); in the assay on Malme-3M, 36.1 µM (inactive); with SF-539 it was 23.3 µM (inactive); with TK-10, 0.39 µM (active); in the assay with 786-0 it was 15.8 µM (inactive); with OVCAR-3, 21.8 µM (inactive). The GI50 in the assay on RXF 393 was 24 µM (inactive); in the assay on NCI-H522, 18 µM (inactive); in the assay on SK-OV-3, 38.2 µM (inactive); in the assay on OVCAR-4 it was 2.09 µM (inactive); in the assay with A549, 15.2 µM (inactive); with K562, 21.3 µM (inactive). Besides, the GI50 in the assay with SK-MEL-2 was 17.9 µM (inactive); in the assay on SNB-75 it was 41.5 µM (inactive); with HCC 2998 it was 6.75 µM (inactive); in the assay on MDA-MB-231, 14.3 µM (inactive).

With `COC(=O)/C(=N\NC(N)=S)C(C(=O)OC)C(=O)C(=O)Nc1ccc(C)cc1` (stereo not given), the GI50 in the assay with SNB-19, in the assay on Malme-3M, in the assay on SF-539, with TK-10, in the assay with 786-0 and in the assay with OVCAR-3 was > 100 µM (inactive) throughout. In addition, the GI50 with RXF 393, with NCI-H522, with SK-OV-3, in the assay with OVCAR-4, in the assay with A549 and in the assay with RPMI-8226 was > 100 µM (inactive) throughout. The GI50 in the assay on K562 is > 100 µM (inactive); with SK-MEL-2, > 100 µM (inactive); with SNB-75 it was 41.9 µM (inactive); with HCC 2998 it was > 100 µM (inactive).

For `Cc1ccc(C2=C(c3ccccc3)C(=O)C(c3ccccc3)=C2c2ccc(C)cc2)cc1`, the GI50 was 54.3 µM (inactive) with SNB-19; 31 µM (inactive) in the assay on Malme-3M; 18.3 µM (inactive) with SF-539; 45.6 µM (inactive) with TK-10; 34.8 µM (inactive) in the assay on 786-0; 26.4 µM (inactive) in the assay with RXF 393. Also, the GI50 in the assay with NCI-H522 is 72.9 µM (inactive); with SK-OV-3, > 100 µM (inactive); in the assay with A549 it was 43.7 µM (inactive); with RPMI-8226, 29.1 µM (inactive); with K562 it was 22.1 µM (inactive); with SK-MEL-2, 6.79 µM (inactive). In addition, the values for the GI50 in the assay with SNB-75 and in the assay on HCC 2998 were 87.3 µM (inactive) and > 100 µM (inactive), respectively.

Consider `O=C1C=CC(=NNc2ccccc2)C=CC1=O`, for which the GI50 in the assay with SNB-19 was 18.9 µM (inactive); with Malme-3M it was 13.4 µM (inactive); in the assay with SF-539, 16 µM (inactive); in the assay on TK-10, 22.3 µM (inactive); in the assay on 786-0, 18.4 µM (inactive); with OVCAR-3 it was 10.3 µM (inactive). The GI50 in the assay on RXF 393 is 99.8 µM (inactive); in the assay on NCI-H522, 13.1 µM (inactive); with SK-OV-3, 26 µM (inactive); in the assay on T47D it was 10.2 µM (inactive); with OVCAR-4, 7.46 µM (inactive); in the assay on A549 it was 10.7 µM (inactive). The GI50 in the assay on K562 is 7.64 µM (inactive); with MCF7 it was 19.3 µM (inactive); in the assay with SK-MEL-2 it was 15.1 µM (inactive); in the assay on SNB-75 it was 16.3 µM (inactive); in the assay with MDA-MB-231, 14.9 µM (inactive).

Regarding `COc1cc(C(=O)Nc2cccc3ccccc23)c(Br)c(OC)c1OC`, the GI50 in the assay on SNB-19 is > 100 µM (inactive); in the assay on Malme-3M it was 67.6 µM (inactive); in the assay with SF-539, > 100 µM (inactive); in the assay with TK-10, > 100 µM (inactive); in the assay with 786-0, 1.38 µM (inactive); with OVCAR-3 it was > 100 µM (inactive). The GI50 with RXF 393 is 42.7 µM (inactive); with NCI-H522 it was 56.9 µM (inactive); with SK-OV-3 it was > 100 µM (inactive); with OVCAR-4 it was 16.5 µM (inactive); in the assay on A549 it was 66.2 µM (inactive); in the assay with RPMI-8226, 42.8 µM (inactive). Moreover, the GI50 with K562 is 43.5 µM (inactive); in the assay on SK-MEL-2 it was > 100 µM (inactive); with SNB-75, 62.2 µM (inactive); in the assay on HCC 2998, > 100 µM (inactive).

As for `CC(C)=CC(=O)Cc1nc2cc(C)c(C)cc2[nH]c1=O`, the GI50 with SNB-19, in the assay on Malme-3M, in the assay with SF-539, with TK-10, in the assay on 786-0 and in the assay on OVCAR-3 was > 100 µM (inactive) in each case. Also, the GI50 was 64.9 µM (inactive) with RXF 393; > 100 µM (inactive) with SK-OV-3; 87.1 µM (inactive) in the assay on OVCAR-4; > 100 µM (inactive) in the assay on A549; > 100 µM (inactive) with RPMI-8226; > 100 µM (inactive) in the assay on K562. Besides, the GI50 in the assay on SK-MEL-2, with SNB-75 and in the assay on HCC 2998 was > 100 µM (inactive) in each case.

In the case of `Sc1nnc(COc2ccc(Cl)cc2)[nH]1`, the GI50 with SNB-19, in the assay with Malme-3M, in the assay on SF-539, in the assay on TK-10, in the assay with 786-0 and with OVCAR-3 was > 100 µM (inactive) each time. The GI50 in the assay with RXF 393, in the assay with NCI-H522, in the assay with SK-OV-3, in the assay with OVCAR-4, with A549 and in the assay on RPMI-8226 was > 100 µM (inactive) each time. For the same compound, the GI50 in the assay on K562, with SK-MEL-2, in the assay with SNB-75 and with HCC 2998 was > 100 µM (inactive) throughout.

For the compound `COc1ccc(/C=N\O[Si](C)(C)C(C)(C)C)cc1O[Si](C)(C)C(C)(C)C`, the GI50 in the assay on SNB-19 was 18.9 µM (inactive); in the assay with Malme-3M, 17.6 µM (inactive); in the assay on SF-539, 18.5 µM (inactive); in the assay on TK-10, 20.4 µM (inactive); with 786-0 it was 16.7 µM (inactive); in the assay on OVCAR-3, 17.1 µM (inactive). Besides, the GI50 in the assay with RXF 393 was 14.3 µM (inactive); with SK-OV-3 it was 30.6 µM (inactive); in the assay with OVCAR-4, 19 µM (inactive); in the assay with A549 it was 18 µM (inactive); in the assay on RPMI-8226, 17.9 µM (inactive); with K562, 18.3 µM (inactive). For the same compound, the GI50 in the assay with SK-MEL-2 was 16.5 µM (inactive); in the assay on SNB-75 it was 22.3 µM (inactive); in the assay with HCC 2998, 17.3 µM (inactive).

For the compound `COC(=O)c1cc(C)c(C)c2c1NC(=O)CNC2=O`, the GI50 in the assay with SF-539, in the assay with 786-0, in the assay with OVCAR-3, in the assay with RXF 393, in the assay with OVCAR-4 and in the assay on A549 was > 100 µM (inactive) in each case. The GI50 with RPMI-8226, with K562, in the assay on SK-MEL-2, in the assay on SNB-75 and in the assay on HCC 2998 was > 100 µM (inactive) each time.
